US20240240078A1, “NUCLEIC ACID FUNCTIONALIZED METAL NANOPROBE AND PREPARATION METHOD THEREFOR” (SOUTHEAST UNIVERSITY, priority 2021, published 2024)

Experiments:
[1] = system: Escherichia coli; test: Germicidal effect after 808 nm laser irradiation, culture on solid medium and counting; type: cell-based
Experimental: (§1) A preparation method for a nucleic acid functionalized metal nanoprobe includes: • (1) deoxyribonucleic acid (DNA) molecules are fully mixed with a diluted nucleic acid intercalator SYBR Green I (2.5×), and a mixture is placed at a room temperature to react in dark for 30 min. • (2) a reaction product of step (1) is fully mixed with 100 μmol/L chloroauric acid solution to obtain a mixed solution A. • (3) the mixed solution A and Escherichia coli are continuously co-incubated in a constant-temperature shaking table for 1 h-12 h to obtain a mixed solution B. A normal control group (a chloroauric acid solution having the same concentration as the experimental group is merely added) and a blank group (an Escherichia coli suspension without any treatment) are set. After incubation, a small amount of the above mixed solution are dripped into the slide glass, and mounting is performed with a cover glass. • (4) A slide glass is placed under a laser confocal fluorescence microscope to be activated. Further, the above mixture is irradiated with 808 nm laser for 5-10 min, is cultured on a solid medium, and counted.

[2] = system: Escherichia coli; test: Fluorescence imaging of co-incubated bacteria under laser confocal fluorescence microscope; type: cell-based
Experimental: as §1

[Au+3].[Cl-].[Cl-].[Cl-].[Cl-].[H+] [chloroauric acid]
germicidal (antibacterial) effect ([1]; 808 nm laser 5-10 min, cultured on solid medium and counted, metal cation 100 μmol/L): most of Escherichia coli is killed
sterilization effect with increase of concentration ([1]; method of Example 1, 0-300 μmol/L (FIG. 3)): gradually enhanced
fluorescence / signal intensity ([2]; co-incubated with Escherichia coli 1 h-12 h, metal cation 100 μmol/L): weak fluorescence
concentration at which signal intensity reaches maximum / does not increase any more ([2]; method of Example 1, 0, 10, 50, 100, 200, 300 μmol/L tested (FIG. 2)): 100 µmol/L
signal intensity with increase of concentration ([2]; method of Example 1, 0-300 μmol/L (FIG. 2)): enhanced
